Patent US20050112573A1, “Method of detecting toxic substance” (priority 2001, published 2005)
Where two headings read alike, the source gives them in different places.

Tests used:
Format in all cases: cell-based, Saccharomyces cerevisiae W303
[1] = system: promoter of yeast gene YKL071w
Text: (§1) The inventors of the present application understood that the induction of certain yeast genes by toxic substances is caused by the activation of the promoters of the genes by the toxic substances. Thus, the inventors prepared a vector that comprised a polynucleotide sequence comprising the promoter of the yeast gene, which sequence is operably linked to a polynucleotide encoding a marker protein; and transformed yeast cells with the vector. […] The working examples hereinafter illustrate the preparation of such vectors, transformation of yeast cells by use of said vectors, and the detection of toxic substances by use of the transformed cells.
(§2) Promoter assay is a method for determining variations of the level of intracellular genes without destroying cells on the basis of the level of expressed marker genes instead of the expressed mRNA. The gene selected to detect a chemical substance is expressed in the absence of chemical substances, and thus a marker protein also occurs in the absence of chemical substances. In the method according to the present invention, the behavior of yeast genes on the addition of test materials is determined on the basis of the level of expressed marker protein so that the presence or the absence, and the kind of toxic chemical substances are predicted. Thus, it is desired that the production of marker proteins is lower in the absence of chemical substances, and the production of marker proteins is higher in the presence of chemical substances.
(§3) Type YEp shuttle vector pYES2 (pYES2, Cat no: V825-20, Invirtogen Corporation, USA), which can be replicated both in E. coli. and yeast was used as vector (R. W. Old, S. B. Primrose Principles of Gene Manipulation 5th Ed., BAIFUKAN CO., LTD, pp138-165, pp.234-263, 2000). The portion of vector pQBI 63 (Cat no.54-0082, Wako Pure Chemical Industries, Ltd.) corresponding to a marker protein GFP was used as the polynucleotide encoding GFP (SEQ ID No: 6). First, the GFP polynucleotide was inserted into the multiple cloning sites of pYES2 to give a vector. Thereafter, the GAL1 promoter of pYES2 was replaced with the polynucleotide comprising the promoter sequence of the intended yeast gene YKL071w (SEQ ID No: 1) to give an intended plasmid vector. Suitable restriction enzymes were selected, and the insertion of the polynucleotide comprising GFP and the promoter sequence was conducted.
(§4) Next, the yeast Saccharomyces cerevisiae W303 was transformed with the resultant plasmid vector according to the following procedures: • 1) Incubating the yeast Saccharomyces cerevisiae W303 in 200 ml of SD medium under shaking until OD 660 reaches 0.5; • 2) Suspending the collected cells in 5 ml of TE-buffer; • 3) Adding 250 μL of 2.5M lithium acetate; • 4) Dispending each 300 μl, adding 10 μl of above plasmid vector thereto, then incubating the suspensions at 30° C. for 30 minutes; • 5) Adding 700 μl of 50% PEG4000, and incubating the mixture under shaking at 30° C. for 60 minutes; • 6) Giving heat shock (42° C., 5 minutes), and then immediately cooling the mixture; • 7) Washing the mixture twice with 1M sorbitol; and • 8) Seeding it on agar plates made of minimum essential medium.
(§5) The cells of SC-YKL071W-pQBI as prepared in Example 2 were contacted to one of the following compounds. The yeast cells SC-YKL071W-pQBI were incubated at 25° C. in SD medium (Yeast nitrogen base without amino acids (Difco 0919-15)+glucose+amino acids (adenine, histidine, tryptophan)). One of toxic chemical substances as shown below was added to the cells at logarithmic growth phase, and then the cells were further incubated for two hours.

[2] = system: promoter of yeast gene YCR102c
Text: as §1, §2
as §3, with “PQBI” for “pQBI”, “GALL” for “GAL1”, “YCR102c” for “YKL071w”, “2)” for “1)”
as §4
as §5, with “of SC-YCR102C-pQBI” for “of SC-YKL071W-pQBI”, “Example 3” for “Example 2”, “cells SC-YCR102C-pQBI” for “cells SC-YKL071W-pQBI”

[3] = system: promoter of yeast gene YOR382w
Text: as §1, §2
as §3, with “YOR382w” for “YKL071w”, “3)” for “1)”
as §4
as §5, with “of SC-YOR382W-pQBI” for “of SC-YKL071W-pQBI”, “Example 4” for “Example 2”, “cells SC-YOR382W-pQBI” for “cells SC-YKL071W-pQBI”

Row | Molecule | Fluorescens ([1]; SC-YKL071W-pQBI cells, 25° C., two hours, each substance at the concentration given) | Fluorescence ([2]; cells SC-YCR102C-pQBI, 2 hours incubation with the substance at the concentration printed in its row (column Concentrations), GFP fluorescence vs control without chemical) | Fluorescence ([3]; cells SC-YOR382W-pQBI, 2 hours incubation with the substance at the concentration printed in its row (column Concentrations), GFP fluorescence vs control without chemical) | Fluorescens [1] | Fluorescence [2] | Fluorescence [3] | expression of GFP [3]
1 | HgCl2 [(3)] | − (the number of the cells having a higher fluorescence than the control was under 1%) | − (the number of the cells having a higher fluorescence than the control was under 1%) | − (the number of the cells having a higher fluorescence than the control was under 1%) | – | – | – | –
2 | CC(=O)O.Cc1nc(N)cc2[nH]c3ccccc3c12 [Trp-P-2 (acetate)] | – | – | – | − (key: −: the number of the cells having a higher fluorescence than the control was under 1%; +: between 1% and 2%; ++: 2% or more) | − (key: −: the number of the cells having a higher fluorescence than the control was under 1%; +: between 1% and 2%; ++: 2% or more) | ++ (key: −: the number of the cells having a higher fluorescence than the control was under 1%; +: between 1% and 2%; ++: 2% or more) | induced the expression of GFP
